Activity calls are given as the source filed them. No cut-off for these calls is given here.
Tests used:
NCI-H460 [1] = assay: Cell cycle arrest in human NCI-H460 cells assessed as accumulation at G2 phase at 5 uM after 48 hrs by Rnase A/propidium iodide staining-based flow cytometry (reference value: 33.9%); assay type: functional
NCI-H460 [2] = assay: Induction of apoptosis in human NCI-H460 cells assessed as karyopyknosis and chromatin condensation after 24 hrs by Hoechst 33258 staining-based fluorescence microscopy relative to control; assay type: functional, cell-based
NCI-H460 [3] = assay: Induction of apoptosis in human NCI-H460 cells assessed as late apoptotic cells at 8 uM after 24 hrs by Annexin V/propidium iodide staining-based flow cytometry (reference value: 14.1%); assay type: functional
NCI-H460 [4] = assay: Induction of apoptosis in human NCI-H460 cells assessed as necrotic cells at 10 uM after 24 hrs by Annexin V/propidium iodide staining-based flow cytometry (reference value: 6.9%); assay type: functional
HUVEC = assay: Cytotoxicity against HUVEC after 48 hrs by MTT assay; assay type: cell-based; details: Homo sapiens
NCI-H460 [5] = assay: Cell cycle arrest in human NCI-H460 cells assessed as accumulation at S phase at 5 uM after 48 hrs by Rnase A/propidium iodide staining-based flow cytometry (reference value: 19.41%); assay type: functional
HCT-116 = assay: cells; details: Homo sapiens, HCT-116, 48 h
Description: Cytotoxicity against human HCT116 cells after 48 hrs by MTT assay

NCI-H460 [6] = assay: Cell cycle arrest in human NCI-H460 cells assessed as accumulation at G1 phase at 8 uM after 12 hrs by Rnase A/propidium iodide staining-based flow cytometry (reference value: 46.69%); assay type: functional
NCI-H460 [7] = assay: Induction of apoptosis in human NCI-H460 cells assessed as late apoptotic cells at 8 uM after 48 hrs by Annexin V/propidium iodide staining-based flow cytometry (reference value: 14.1%); assay type: functional
NCI-H460 [8] = assay: Induction of apoptosis in human NCI-H460 cells assessed as late apoptotic cells after 24 hrs by Annexin V/propidium iodide staining-based flow cytometry; assay type: functional, cell-based
NCI-H460 [9] = assay: Induction of apoptosis in human NCI-H460 cells assessed as early apoptotic cells at 8 uM after 24 hrs by Annexin V/propidium iodide staining-based flow cytometry (reference value: 6.8%); assay type: functional
NCI-H460 [10] = assay: Induction of apoptosis in human NCI-H460 cells assessed as karyopyknosis and chromatin condensation at 5 to 20 uM after 24 hrs by Hoechst 33258 staining-based fluorescence microscopy relative to control; assay type: functional, cell-based
NCI-H460 [11] = assay: Induction of apoptosis in human NCI-H460 cells assessed as early apoptotic cells after 24 hrs by Annexin V/propidium iodide staining-based flow cytometry; assay type: functional, cell-based
KB = assay: Cytotoxicity against human KB cells after 48 hrs by MTT assay; assay type: functional, cell-based
NCI-H460 [12] = assay: Cell cycle arrest in human NCI-H460 cells assessed as accumulation at S phase at 8 uM after 48 hrs by Rnase A/propidium iodide staining-based flow cytometry (reference value: 19.41%); assay type: functional
NCI-H460 [13] = assay: Induction of apoptosis in human NCI-H460 cells assessed as upregulation of CAMK2 mRNA expression after 24 hrs by qRT-PCR analysis; assay type: functional, cell-based
NCI-H460 [14] = assay: Cell cycle arrest in human NCI-H460 cells assessed as accumulation at G2 phase at 8 uM after 24 hrs by Rnase A/propidium iodide staining-based flow cytometry (reference value: 33.9%); assay type: functional
NCI-H460 [15] = assay: Cell cycle arrest in human NCI-H460 cells assessed as accumulation at S phase at 8 uM after 24 hrs by Rnase A/propidium iodide staining-based flow cytometry (reference value: 19.41%); assay type: functional
NCI-H460 [16] = assay: Induction of apoptosis in human NCI-H460 cells assessed as viable cells at 20 uM after 24 hrs by Annexin V/propidium iodide staining-based flow cytometry (reference value: 72.2%); assay type: functional; details: NCI-H460, 24 h, read-out: Activity
NCI-H460 [17] = assay: Induction of apoptosis in human NCI-H460 cells assessed as viable cells at 5 uM after 24 hrs by Annexin V/propidium iodide staining-based flow cytometry (reference value: 72.2%); assay type: functional; details: NCI-H460, 24 h, read-out: Activity
NCI-H460 [18] = assay: Induction of apoptosis in human NCI-H460 cells assessed as change in mitochondrial membrane potential at 8 uM after 12 to 48 hrs by JC-1 staining-based fluorescence microscopy relative to control; assay type: functional, cell-based
NCI-H460 [19] = assay: Induction of apoptosis in human NCI-H460 cells assessed as necrotic cells at 5 uM after 24 hrs by Annexin V/propidium iodide staining-based flow cytometry (reference value: 6.9%); assay type: functional
NCI-H460 [20] = assay: Induction of apoptosis in human NCI-H460 cells assessed as change in mitochondrial membrane potential at 5 to 20 uM after 24 hrs by JC-1 staining-based fluorescence microscopy relative to control; assay type: functional, cell-based
NCI-H460 [21] = assay: Induction of apoptosis in human NCI-H460 cells assessed as necrotic cells after 24 hrs by Annexin V/propidium iodide staining-based flow cytometry; assay type: functional, cell-based
NCI-H460 [22] = assay: Induction of apoptosis in human NCI-H460 cells assessed as necrotic cells at 8 uM after 12 hrs by Annexin V/propidium iodide staining-based flow cytometry (reference value: 6.9%); assay type: functional
NCI-H460 [23] = assay: Induction of apoptosis in human NCI-H460 cells assessed as caspase-3 activation after 24 hrs by qRT-PCR analysis; assay type: functional, cell-based
NCI-H460 [24] = assay: Induction of apoptosis in human NCI-H460 cells assessed as karyopyknosis and chromatin condensation at 8 uM by Hoechst 33258 staining-based fluorescence microscopy relative to control; assay type: functional, cell-based; details: TDE = time-dependent effect
NCI-H460 [25] = assay: Induction of apoptosis in human NCI-H460 cells assessed as late apoptotic cells at 10 uM after 24 hrs by Annexin V/propidium iodide staining-based flow cytometry (reference value: 14.1%); assay type: functional
NCI-H460 [26] = assay: Induction of apoptosis in human NCI-H460 cells assessed as late apoptotic cells at 8 uM after 12 hrs by Annexin V/propidium iodide staining-based flow cytometry (reference value: 14.1%); assay type: functional
NCI-H460 [27] = assay: Cell cycle arrest in human NCI-H460 cells assessed as accumulation at G2 phase at 20 uM after 48 hrs by Rnase A/propidium iodide staining-based flow cytometry (reference value: 33.9%); assay type: functional
NCI-H460 [28] = assay: Induction of apoptosis in human NCI-H460 cells assessed as upregulation of CAMK1 mRNA expression after 24 hrs by qRT-PCR analysis; assay type: functional, cell-based
NCI-H460 [29] = assay: Cell cycle arrest in human NCI-H460 cells assessed as accumulation at S phase at 10 uM after 48 hrs by Rnase A/propidium iodide staining-based flow cytometry (reference value: 19.41%); assay type: functional
NCI-H460 [30] = assay: Induction of apoptosis in human NCI-H460 cells assessed as increase in intracellular calcium release at 5 to 20 uM after 24 hrs by Fluo-3/AM staining-based fluorescence microscopy; assay type: functional, cell-based
NCI-H460 [31] = assay: Cell cycle arrest in human NCI-H460 cells assessed as accumulation at G2 phase at 10 uM after 48 hrs by Rnase A/propidium iodide staining-based flow cytometry (reference value: 33.9%); assay type: functional
NCI-H460 [32] = assay: Induction of apoptosis in human NCI-H460 cells assessed as upregulation of TP53 mRNA expression after 24 hrs by qRT-PCR analysis; assay type: functional, cell-based
NCI-H460 [33] = assay: Cell cycle arrest in human NCI-H460 cells assessed as accumulation at G2 phase at 8 uM after 12 hrs by Rnase A/propidium iodide staining-based flow cytometry (reference value: 33.9%); assay type: functional

SMILES | Activity (NCI-H460 [1]) [%] | Activity (NCI-H460 [2]) | Activity (NCI-H460 [3]) [%] | Activity (NCI-H460 [4]) [%] | IC50 (HUVEC) [µM] | Activity (NCI-H460 [5]) [%] | IC50 (HCT-116) [µM] | Activity (NCI-H460 [6]) [%] | Activity (NCI-H460 [7]) [%] | Activity (NCI-H460 [8]) | Activity (NCI-H460 [9]) [%] | Activity (NCI-H460 [10]) | Activity (NCI-H460 [11]) | IC50 (KB) [µM] | Activity (NCI-H460 [12]) [%] | Activity (NCI-H460 [13]) | Activity (NCI-H460 [14]) [%] | Activity (NCI-H460 [15]) [%] | viability at 20 µM (NCI-H460 [16]) [%] | viability at 5 µM (NCI-H460 [17]) [%] | other results
CCOP(=O)(OCC)C(NC(=O)C(C)Oc1ccc2c(c1O)C(=O)c1ccccc1C2=O)c1ccccc1F (stereo not drawn) | 23.14 | Dose-dependent effect | 13 | 0.8 | 21 | 12.34 | 13.3 | 55.78 | 9.3 | Dose-dependent effect | 38.8 | Active | Dose-dependent effect | 0.7 | 10.87 | Dose-dependent effect | 23.05 | 16.3 | 33.6 | 61.6 | Activity (NCI-H460 [18]): Active; Activity (NCI-H460 [19]): 0.3%; Activity (NCI-H460 [20]): Active; Activity (NCI-H460 [21]): Dose-dependent effect; Activity (NCI-H460 [22]): 0.5%; Activity (NCI-H460 [23]): Dose-dependent effect; Activity (NCI-H460 [24]): tde; Activity (NCI-H460 [25]): 6.8%; Activity (NCI-H460 [26]): 7.9%; Activity (NCI-H460 [27]): 20.06%; Activity (NCI-H460 [28]): Dose-dependent effect; Activity (NCI-H460 [29]): 13.42%; Activity (NCI-H460 [30]): Active; Activity (NCI-H460 [31]): 20.77%; Activity (NCI-H460 [32]): Dose-dependent effect; Activity (NCI-H460 [33]): 29.57%
CCOP(=O)(OCC)C(NC(=O)C(C)Oc1ccc2c(c1O)C(=O)c1ccccc1C2=O)c1ccccc1OC (stereo not drawn) | 34.41 | Dose-dependent effect | 11.1 | 8.4 | > 50 | 8.74 | 10.5 | 56.84 | 18.2 | Dose-dependent effect | 38.9 | Active | Dose-dependent effect | 0.88 | 8.87 | Dose-dependent effect | 21.99 | 13.09 | 30.7 | 62.1 | Activity (NCI-H460 [18]): Active; Activity (NCI-H460 [19]): 2.8%; Activity (NCI-H460 [20]): Active; Activity (NCI-H460 [21]): Dose-dependent effect; Activity (NCI-H460 [22]): 0.7%; Activity (NCI-H460 [23]): Dose-dependent effect; Activity (NCI-H460 [24]): tde; Activity (NCI-H460 [25]): 17.8%; Activity (NCI-H460 [26]): 5.6%; Activity (NCI-H460 [27]): 23.09%; Activity (NCI-H460 [28]): Dose-dependent effect; Activity (NCI-H460 [29]): 9.84%; Activity (NCI-H460 [30]): Active; Activity (NCI-H460 [31]): 29.38%; Activity (NCI-H460 [32]): Dose-dependent effect; Activity (NCI-H460 [33]): 27.54%
CCOP(=O)(OCC)C(NC(=O)C(C)Oc1ccc2c(c1O)C(=O)c1ccccc1C2=O)c1cccc2ccccc12 (stereo not drawn) | 25.78 | Dose-dependent effect | 13.5 | 1.1 | 40.5 | 17.02 | 40 | 65.57 | 14.8 | Dose-dependent effect | 36.6 | Active | Dose-dependent effect | 1.02 | 0.41 | Dose-dependent effect | 32.56 | 1.11 | 43.4 | 71.4 | Activity (NCI-H460 [18]): Active; Activity (NCI-H460 [19]): 1.4%; Activity (NCI-H460 [20]): Active; Activity (NCI-H460 [21]): Dose-dependent effect; Activity (NCI-H460 [22]): 0.9%; Activity (NCI-H460 [23]): Dose-dependent effect; Activity (NCI-H460 [24]): tde; Activity (NCI-H460 [25]): 18.6%; Activity (NCI-H460 [26]): 8.3%; Activity (NCI-H460 [27]): 21.34%; Activity (NCI-H460 [28]): Dose-dependent effect; Activity (NCI-H460 [29]): 15.41%; Activity (NCI-H460 [30]): Active; Activity (NCI-H460 [31]): 24.74%; Activity (NCI-H460 [32]): Dose-dependent effect; Activity (NCI-H460 [33]): 34.32%
